Reference: patent publication US20110111021A1, “PHARMACEUTICAL PREPARATION” (HANALL BIOPHARMA CO., LTD., priority 2008, published 2011)
Each block holds one molecule with its values, some of them ahead of it.

Key:
[1] = cited from earlier work
[2] = concurrent administration of aliskiren and atorvastatin; cited from earlier work
[3] = Pharmacokinetic evaluation of aliskiren and atorvastatin in rats (animal test); assay type: in vivo; conditions: SD rats, oral, once a day for 8 days
Protocol: As an experiment to confirm the effects of the invention, an animal test was carried out as follows, in order to confirm the effects of conventional combined administration and inventive chronotherapeutic administration of pharmacologically active ingredients, aliskiren as a renin inhibitor and atorvastatin as an HMG-CoA reductase inhibitor.
1) Title: Pharmacokinetic evaluation of aliskiren and atorvastatin in a hypertensive animal model.
2) Object: It is intended to verify through the chronotherapeutic administration-based pharmacokinetic changes the fact that the problem of pharmacokinetic interaction between different drugs upon simultaneous administration of drug groups metabolized by the same hepatic enzyme can be solved by controlled release of the drugs.
1. Test group: Animals were grouped into two groups (n=6), a group receiving simultaneous administration of aliskiren/atorvastatin, and a group receiving chronotherapeutic administration of aliskiren/atorvastatin.
2. Administration route: Forced intragastric administration via an oral sonde.
3. […]
5. Administration volume: 5 mL/kg based on the body weight of animals measured on the day of administration. […]

[4] = system: hepatic enzyme cytochrome P450; conditions: cited from earlier work
cytochrome P450 3A4 = cytochrome P450 3A4 (Homo sapiens, UniProt P08684); conditions: in vitro experiments; cited from earlier work
Chain of cytochrome P450 3A4 (P08684 whole entry, species assumed): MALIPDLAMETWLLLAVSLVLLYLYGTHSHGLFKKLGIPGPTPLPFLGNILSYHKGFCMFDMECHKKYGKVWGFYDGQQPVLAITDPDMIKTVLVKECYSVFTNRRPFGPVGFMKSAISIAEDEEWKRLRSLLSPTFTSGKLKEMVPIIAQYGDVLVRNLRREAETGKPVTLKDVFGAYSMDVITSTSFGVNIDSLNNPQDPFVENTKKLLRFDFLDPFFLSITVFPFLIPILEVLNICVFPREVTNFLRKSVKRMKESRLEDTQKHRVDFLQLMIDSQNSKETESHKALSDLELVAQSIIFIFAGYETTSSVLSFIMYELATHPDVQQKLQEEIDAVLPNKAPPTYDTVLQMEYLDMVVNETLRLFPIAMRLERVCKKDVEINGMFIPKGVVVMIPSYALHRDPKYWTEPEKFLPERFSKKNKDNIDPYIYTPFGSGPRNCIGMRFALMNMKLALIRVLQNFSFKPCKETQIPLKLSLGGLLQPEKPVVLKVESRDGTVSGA

blood level of aliskiren compared to the single administration group ([3]; aliskiren 300 mg/kg and atorvastatin 80 mg/kg simultaneously): significant increase
Structure (SMILES): COCCCOc1cc(C[C@@H](C[C@H](N)[C@@H](O)C[C@H](C(=O)NCC(C)(C)C(N)=O)C(C)C)C(C)C)ccc1OC [aliskiren, 2(S),4(S),5(S),7(S)-N-(3-amino-2,2-dimethyl-3-oxopropyl)-2,7-di(1-methylethyl)-4-hydroxy-5-amino-8-[4-methoxy-3-(3-methoxy-propoxy)phenyl]-octanamide]
bioavailability ([1]; in vivo): ≤ 2%
half-life ([1]; in vivo): 24 h
decrease in bioavailability ([1]; when high-fat diet is ingested): 71%
decrease in peak blood level ([1]; when high-fat diet is ingested): 85%
increase in blood aliskiren level [2]: 50%
blood aliskiren level compared to the single administration group ([3]; aliskiren 300 mg/kg given 4 hours after atorvastatin 80 mg/kg (chronotherapeutic)): equivalent to that of the single administration group
inhibition or induction of hepatic enzyme cytochrome P450 [4]: does not inhibit or induce
metabolism by cytochrome P450 3A4 (cytochrome P450 3A4): metabolized by cytochrome P450 3A4

Structure (SMILES): CC(C)(C)S(=O)(=O)C[C@@H](Cc1ccccc1)C(=O)N[C@@H](Cc1cnc[nH]1)C(=O)N[C@@H](CC1CCCCC1)[C@@H](O)[C@@H](O)C1CC1 [remikiren]
bioavailability (in words) ([1]; in vivo): low
half-life (in words) ([1]; in vivo): short

Structure (SMILES): CC(C)C[C@H](O)[C@H](O)[C@H](CC1CCCCC1)NC(=O)[C@H](Cc1cscn1)NC(=O)[C@H](Cc1ccccc1)CS(=O)(=O)N1CCN(C)CC1 [zankiren]
bioavailability (in words) ([1]; in vivo): low
half-life (in words) ([1]; in vivo): short

Structure (SMILES): COc1ccc(C[C@H](NC(=O)CC(C)(C)N)C(=O)N[C@@H](Cc2cnc[nH]2)C(=O)N[C@@H](CC2CCCCC2)[C@@H](O)[C@@H](O)CC(C)C)cc1 [enalkiren]
bioavailability (in words) ([1]; in vivo): low
half-life (in words) ([1]; in vivo): short
